Where two headings read alike, the source gives them in different places.
Key:
Assay type in all cases: cell-based
KU1919.1 = experiment: Cell Titer Glo (CTG) proliferation assay, KU1919; conditions: KU1919.1 cells, 72.0 hrs., read-out: AVE CTG Proliferation KU1919.1 72.0 hrs.
Outline: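 After overnight seeding at 37 °C, 5% CO2, cells were exposed to compound for 3 days. Viability read by CellTiter-Glo luminescence after 30 min at room temperature.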

MDAMB231.1 = experiment: Cell Titer Glo (CTG) proliferation assay, MDA-MB-231; conditions: MDAMB231.1 cells, 72 hrs., read-out: AVE CTG Proliferation MDAMB231.1 72 hrs.
Method: (§1) Seed cells in 40 μL of cell culture media into each well of 384-well cell culture plate, spin them at room temperature at 1,000 RPM for 1 minute and then transfer the plates into 37° C. 5% CO2 incubator overnight. Next day, treat cells with 40 nL of diluted compound and return to incubator. After compound treatment for 3 days, Add 30 μL of CellTiter-Glo reagent (Promega) into each well to be detected. Then place the plates at room temperature for 30 min followed by reading on EnVision. Inhibition activity calculated as % DMSO=100×(LumSample-Lum low control)/(Lum high control-Lum low control) where high control is from cells treated with 0.1% DMSO and Low control obtained from PBS only. Use XLFit (equation 201) to calculate IC50 (A+ ((B−A)/(1[…]((x/C)^D)))) where A: Bottom, B: Top, C: IC50, D: Slope.

MDAMB468.1 = experiment: Cell Titer Glo (CTG) proliferation assay, MDA-MB-468; conditions: MDAMB468.1 cells, 72.0 hrs., read-out: AVE CTG Proliferation MDAMB468.1 72.0 hrs.
Method: as §1

Row | SMILES | IC50 (MDAMB231.1; Homo sapiens, MDA-MB-231) [µM] | IC50 (MDAMB468.1; Homo sapiens, MDA-MB-468) [µM] | IC50 (KU1919.1; Homo sapiens, KU-19-19) [µM] | IC50 (KU1919.1) [µM] | IC50 (MDAMB231.1) [µM] | IC50 (MDAMB468.1) [µM]
1 | CCc1cccc(-c2cc(F)c(C(=O)N3CCN(CC4CCN(CC(C(=O)N5CCN(c6ncnc7c6[C@H](C)C[C@H]7O)CC5)c5ccc(Cl)cc5)CC4)CC3)c(F)c2)c1 (stereo partly drawn) [Compound I-262] | 1 to 5 | 1 to 5 | 0.5 to 1 |  |  | 
2 | CCOc1cc(OC)ccc1CNCC(=O)N1CCC[C@H](c2cccc(C(=O)N[C@@H](C(=O)N3CCN(CC4CCN(CC(C(=O)N5CCN(c6ncnc7c6[C@H](C)C[C@H]7O)CC5)c5ccc(Cl)cc5)CC4)CC3)C3CCCCC3)c2)C1 (stereo partly drawn) [Compound I-219] | 1 to 5 | 1 to 5 | 0.5 to 1 |  |  | 
3 | NC1(C(=O)N[C@@H](CCO)c2ccc(Cl)cc2)CCN(c2nc[nH]c3nccc2-3)CC1 [AZD-5363, Capivasertib, reference compound] |  |  |  | > 10 | > 10 | > 10
4 | C[C@@H]1C[C@@H](O)c2ncnc(N3CCN(C(=O)[C@H](CNCCNC(=O)CN4CCC(CN5CCN(C(=O)c6cccc(C7CCCN(C(=O)CNCc8ccc(F)cc8F)C7)c6)CC5)CC4)c4ccc(Cl)cc4)CC3)c21 (stereo partly drawn) [Compound I-207] | > 10 | > 10 | > 10 |  |  | 
5 | C[C@@H]1C[C@@H](O)c2ncnc(N3CCN(C(=O)C(CN4CCC(CN5CCN(C(=O)[C@H](NC(=O)c6cccc([C@H]7CCCN(C(=O)C8CC8)C7)c6F)C6CCCCC6)CC5)CC4)c4ccc(Cl)cc4)CC3)c21 (stereo partly drawn) [Compound I-277] | < 0.5 | < 0.5 | < 0.5 |  |  | 
6 | CCc1cccc(-c2cnc(C(=O)NCCOCCNCC[C@H](NC(=O)C3(N)CCN(c4ncnc5[nH]ccc45)CC3)c3ccc(Cl)cc3)c(NC(C)=O)c2)c1 [Compound I-184] |  | > 10 | 5 to 10 |  |  | 
7 | CCc1cccc(-c2cnc(C(=O)N3CCN(CC45CCC(NCC(=O)NCCNC[C@@H](C(=O)N6CCN(c7ncnc8c7[C@H](C)C[C@H]8O)CC6)c6ccc(Cl)cc6)(CC4)CO5)CC3)c(NC(=O)CN3CCOCC3)c2)c1 [Compound I-175] |  | 1 to 5 | 1 to 5 |  |  | 

Further lines, with some results ahead:

Row | IC50 (MDAMB231.1; Homo sapiens, MDA-MB-231) [µM] | IC50 (MDAMB468.1; Homo sapiens, MDA-MB-468) [µM] | SMILES | IC50 (KU1919.1; Homo sapiens, KU-19-19) [µM] | IC50 (KU1919.1) [µM] | IC50 (MDAMB231.1) [µM] | IC50 (MDAMB468.1) [µM]
8 | 1 to 5 | 1 to 5 | NC1(C(=O)N[C@@H](CCN2CCN(C(=O)CN3CCC(OC4CCN(C(=O)[C@H](NC(=O)c5cc(C6CCCN(C(=O)C7CC7)C6)ccc5F)C5CCCCC5)CC4)CC3)CC2)c2ccc(Cl)cc2)CCN(c2ncnc3[nH]ccc23)CC1 (stereo partly drawn) [Compound I-224] | 1 to 5 |  |  | 
9 | 1 to 5 | 1 to 5 | NC1(C(=O)N[C@@H](CCN2CCN(C(=O)CN3CCC(OC4CCN(C(=O)[C@H](NC(=O)c5cc(C6CN(C(=O)C7CC7)C6)ccc5F)C5CCCCC5)CC4)CC3)CC2)c2ccc(Cl)cc2)CCN(c2ncnc3[nH]ccc23)CC1 [Compound I-227] | 1 to 5 |  |  | 
10 | 5 to 10 | 1 to 5 | NC1(C(=O)N[C@@H](CCN2CCN(C(=O)CN3CCC(OC4CCN(C(=O)[C@H](NC(=O)c5cccc(C6CN(C(=O)CNC7CC7)C6)c5)C5CCCCC5)CC4)CC3)CC2)c2ccc(Cl)cc2)CCN(c2ncnc3[nH]ccc23)CC1 [Compound I-241] | 1 to 5 |  |  | 
11 | > 10 | 5 to 10 | NC1(C(=O)N[C@@H](CCN2CCC(OC3CCN(C(=O)c4cccc(C5CCCN(C(=O)CNC6CC6)C5)c4)CC3)CC2)c2ccc(Cl)cc2)CCN(c2ncnc3[nH]ccc23)CC1 (stereo partly drawn) [Compound I-252] | 5 to 10 |  |  | 
12 | 1 to 5 | 1 to 5 | NC1(C(=O)N[C@@H](CCN2CCN(C(=O)CN3CCC(OC4CCN(C(=O)[C@H](NC(=O)c5cccc(C6CN(C(=O)C7CC7)C6)c5)C5CCCCC5)CC4)CC3)CC2)c2ccc(Cl)cc2)CCN(c2ncnc3[nH]ccc23)CC1 [Compound I-240] | 1 to 5 |  |  | 
13 |  | > 10 | C[C@@H]1C[C@@H](O)c2ncnc(N3CCN(C(=O)[C@H](CNCCNC(=O)CN4CCC(CN5CCN(C(=O)[C@H](NC(=O)c6cccc(C7CCCN(C(=O)CNC8CC8)C7)c6)C6CCCCC6)CC5)CC4)c4ccc(Cl)cc4)CC3)c21 (stereo partly drawn) [Compound I-205] | 5 to 10 |  |  | 
